IC50 and inhibition data for nine compounds are collected here from patent publication US20260015350A1, “AZAQUINAZOLINE PAN-KRAS INHIBITORS” (Mirati Therapeutics, Inc., priority 2022, published 2026).

A value given as a limit tells only on which side of the number the result lay.

One assay addresses T1, KRas^G12D (Homo sapiens, UniProt P01116, G12D).
T1 construct: Biotinylated KRas (corresponding to amino acids 1-169, produced at Accelegan Inc.); biotin (biotinylated); purchased Accelegan Inc
In words: KRas binding assay (TR-FRET tracer displacement), KRas G12D. In general terms: Time-resolved FRET reads energy transfer from a long-lived donor to a nearby acceptor.

For another assay, the target named is T2, KRas^G12R (Homo sapiens, UniProt P01116, G12R).
T2 construct: Biotinylated KRas (corresponding to amino acids 1-169, produced at Accelegan Inc.); biotin (biotinylated); purchased Accelegan Inc
T2 sequence (P01116 1-169 isoform P01116-2 G12R): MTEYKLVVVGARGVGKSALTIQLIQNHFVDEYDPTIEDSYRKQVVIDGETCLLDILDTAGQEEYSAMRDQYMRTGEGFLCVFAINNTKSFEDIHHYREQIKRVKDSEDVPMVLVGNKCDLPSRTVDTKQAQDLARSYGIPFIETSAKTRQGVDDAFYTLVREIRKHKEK
Kind of assay: KRas binding assay (TR-FRET tracer displacement), KRas G12R.

A further assay concerns the target T3, KRas^G12V (Homo sapiens, UniProt P01116, G12V).
T3 construct: Biotinylated KRas (corresponding to amino acids 1-169, produced at Accelegan Inc.); biotin (biotinylated); purchased Accelegan Inc
In words: KRas binding assay (TR-FRET tracer displacement), KRas G12V.

The subject of assay [1] is KRas-mediated phosphorylation of ERK in AsPC-1 cells. In words: Inhibition of KRas-mediated phosphorylation of ERK (Cisbio HTRF pERK), AsPC-1 cells. Type of assay: cell-based. The following applies: Homo sapiens; for IC50: ASPC1, AsPC-1 cells, HTRF pERK; for inhibition at 0.1 µM: ASPC1, 3 h, single point, 100 nM compound, 3 hrs, AsPC-1 cells. The method, boiled down: (§1)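 HTRF readout of phospho-ERK in cell lysates after 3 hrs of compound exposure. Dosing: 10 uM top, 3-fold steps, 10 doses, final DMSO 0.8%. Min control: 0.2 uM Trametinib. Lysis ran 40 mins at 4° C, and antibody detection 2 hrs at room temperature.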

The test system of assay [2] is KRas-mediated phosphorylation of ERK in H727 cells. Kind of assay: Inhibition of KRas-mediated phosphorylation of ERK (Cisbio HTRF pERK), H727 cells. Type of assay: cell-based. The following applies: Homo sapiens; for IC50: NCI-H727, H727 cells, HTRF pERK; for inhibition at 0.1 µM: NCI-H727, 3 h, single point, 100 nM compound, 3 hrs, H727 cells. The gist of the method:
as §1

The subject of assay [3] is KRas-mediated phosphorylation of ERK in A549 cells. In words: Inhibition of KRas-mediated phosphorylation of ERK (Cisbio HTRF pERK), A549 cells. Type of assay: cell-based. The settings on record: Homo sapiens; for inhibition at 0.1 µM: A549, 3 h, single point, 100 nM compound, 3 hrs; for IC50: HTRF pERK. As for the experimental part:
(§2) Inhibition of KRas Phosphorylation of ERK (HTRF) by Exemplary Compounds of Formula (I) Cisbio HTRF Advanced PERK Assay Catalog #64[…] […] Add 10 mL of media to stop trypsinizing. Pipette the cells into a conical bottom 50 mL centrifuge tube and centrifuge 5 min×1000 rpm. […] Re-suspend the cell pellet in media, take a cell count, and then adjust the cell density using fresh media. […] Seed 6,000 cells into cell culture plate with 50 μL media. […] Use Tecan to complete the compound addition. Compounds start from 10 uM top, 3-fold dilution, and 10 doses. The final DMSO concentration is 0.8%. Dispensed 0.2 uM Trametinib as Min control. […] Incubate cell plate for 3 hrs in the incubator. […] Dilute 1 volume of 4× lysis buffer with 3 volumes of deionized water. […] Keep lysis buffer on the ice. […] At the end of the compound treatment, flick-off the media. […] Add 35 μL of lysis buffer per well using a Multidrop Combi. Then place on a plate agitator shaking at 300 rpm at 4° C. for 40 mins. […] Make up the HTRF antibody buffer. For each assay plate, mix 50 μL of d2-conjugate antibody with 950 μL of detection buffer. Similarly, mix 50 μL of Cryptate antibody with 950 μL of detection buffer. Then mix the two diluted antibodies together. […] Dispense 3.4 μL the antibody buffer to wells of an empty assay plate. Seal the plate and centrifuge plate 30 sec×1000 rpm. […] At the end of the 4° C. lysis, centrifuge the lysate plates 3 mins×1500 rpm. […] Use the Bravo to transfer 13.6 μL of lysate from cell culture plate to assay plate. Then incubate assay plate for 2 hrs at room temperature. 8. At the end of incubation, read plate on the Envision after centrifuging plate 30 sec×1000 rpm.

The test system of assay [4] is KRas-mediated phosphorylation of ERK in H460 cells. In words: Inhibition of KRas-mediated phosphorylation of ERK (Cisbio HTRF pERK), H460 cells. It counts as cell-based. The following applies: Homo sapiens; for inhibition at 0.1 µM: NCI-H460, 3 h, single point, 100 nM compound, 3 hrs; for IC50: NCI-H460, HTRF pERK. The protocol: as §2
Assay [5] deals with KRas-mediated phosphorylation of ERK in HCT116 cells. In words: Inhibition of KRas-mediated phosphorylation of ERK (Cisbio HTRF pERK), HCT116 cells. It counts as cell-based. The following applies: Homo sapiens; for inhibition at 0.1 µM: HCT-116, 3 h, single point, 100 nM compound, 3 hrs; for IC50: HCT-116, HTRF pERK. As for the experimental part: as §2
Assay [6] concerns KRas-mediated phosphorylation of ERK in H358 cells. Kind of assay: Inhibition of KRas-mediated phosphorylation of ERK (Cisbio HTRF pERK), H358 cells. Type of assay: cell-based. The settings on record: Homo sapiens; for inhibition at 0.1 µM: NCI-H358, 3 h, single point, 100 nM compound, 3 hrs; for IC50: NCI-H358, HTRF pERK. As for the experimental part: as §2

T1 sequence (P01116 1-169 isoform P01116-2 G12D): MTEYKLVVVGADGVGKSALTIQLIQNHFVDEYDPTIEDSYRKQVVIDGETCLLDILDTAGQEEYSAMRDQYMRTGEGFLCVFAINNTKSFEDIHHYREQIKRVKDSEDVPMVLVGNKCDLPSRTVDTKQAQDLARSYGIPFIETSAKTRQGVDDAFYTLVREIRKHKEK
T3 sequence (P01116 1-169 isoform P01116-2 G12V): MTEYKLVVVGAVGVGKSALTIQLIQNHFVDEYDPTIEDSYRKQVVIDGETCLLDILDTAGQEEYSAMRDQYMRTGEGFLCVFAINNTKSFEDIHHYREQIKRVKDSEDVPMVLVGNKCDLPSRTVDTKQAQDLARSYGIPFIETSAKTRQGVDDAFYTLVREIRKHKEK

In general, IC50 refers to the concentration needed to halve the response being measured. By inhibition is commonly meant the drop in the measured response relative to a control, in per cent. On to `CCc1c(F)ccc2cc(O)cc(-c3ncc4c(N5CCCn6nc(C(=O)N(C)C)cc6C5)nc(N5CC(N(C)C)C5)nc4c3F)c12` [Example 535, 5-(2-(3-(dimethylamino)azetidin-1-yl)-7-(8-ethyl-7-fluoro-3-hydroxynaphthalen-1-yl)-8-fluoropyrido[4,3-d]pyrimidin-4-yl)-N,N-dimethyl-5,6,7,8-tetrahydro-4H-pyrazolo[1,5-a][1,4]diazepine-2-carboxamide], for which the IC50 at KRas^G12D amounted to 17 nM; at KRas^G12R, 44 nM; on KRas^G12V, 27 nM; in assay [1], 1620 nM; in [2] it was 2190 nM. The inhibition at 0.1 µM was -9% in assay [3], 16% in assay [4], -3% in assay [5] and -8% in [6].
With `CCc1c(F)ccc2c(F)c(O)cc(-c3ncc4c(N5C[C@@H]6C[C@H](C5)[C@H](O)C6)nc(OC[C@@]56CCCN5C[C@H](F)C6)nc4c3F)c12` [Example 778, (1R,5R,6R)-3-(7-(8-ethyl-4,7-difluoro-3-hydroxynaphthalen-1-yl)-8-fluoro-2-(((2R,7aS)-2-fluorohexahydro-1H-pyrrolizin-7a-yl)methoxy)pyrido[4,3-d]pyrimidin-4-yl)-3-azabicyclo[3.2.1]octan-6-ol], the IC50 at KRas^G12D is 6 nM; on KRas^G12R it was 4 nM; on KRas^G12V, < 2 nM; in assay [1] it was 84 nM; in assay [2], 45 nM. Besides, the inhibition at 0.1 µM was determined as 16% in [1]; 36% in [2]; 69% in [3]; 74% in assay [4]; 49% in [5]; 64% in assay [6].
Consider `CCc1c(F)ccc2cc3[nH]ncc3c(-c3ncc4c(N5CCCC6(CNS(=O)(=O)N6)C5)nc(OC[C@@]56CCCN5C[C@H](F)C6)nc4c3F)c12` (stereo partly shown) [Example 872], for which the IC50 in [1] came to 328 nM; in assay [2], 1210 nM; in assay [3], 581 nM; in assay [4], 318 nM; in assay [5] it was 636 nM; in assay [6] it was 197 nM.
As for `CCc1c(F)ccc2cc(O)cc(-c3ncc4c(N5CC6CCC(CCC(=O)N(C)C)(C6)C5)nc(OC[C@@]56CCCN5C[C@H](F)C6)nc4c3F)c12` (stereo partly drawn) [Example 913, 3-(3-(7-(8-ethyl-7-fluoro-3-hydroxynaphthalen-1-yl)-8-fluoro-2-(((2R,7aS)-2-fluorotetrahydro-1H-pyrrolizin-7a(5H)-yl)methoxy)pyrido[4,3-d]pyrimidin-4-yl)-3-azabicyclo[3.2.1]octan-1-yl)-N,N-dimethylpropanamide], the IC50 in [1] worked out at 580 nM; in assay [2], 571 nM; in assay [3] it was 246 nM; in [4], 112 nM; in assay [5], 211 nM; in [6], 146 nM.
On to `CCc1c(F)ccc2cc(O)cc(-c3ncc4c(N5CCCn6nc(P(C)(C)=O)cc6C5)nc(OC[C@@]56CCCN5C[C@H](F)C6)nc4c3F)c12` [Example 660, (5-(7-(8-ethyl-7-fluoro-3-hydroxynaphthalen-1-yl)-8-fluoro-2-(((2R,7aS)-2-fluorohexahydro-1H-pyrrolizin-7a-yl)methoxy)pyrido[4,3-d]pyrimidin-4-yl)-5,6,7,8-tetrahydro-4H-pyrazolo[1,5-a][1,4]diazepin-2-yl)dimethylphosphine oxide], for which the IC50 on KRas^G12D was 2 nM; on KRas^G12R, 2 nM; at KRas^G12V, 7 nM; in assay [1], 8030 nM; in assay [2] it was > 10000 nM. Also, the inhibition at 0.1 µM in assay [3] is -41%; in assay [6], -20%.
For `CCNC(=O)c1cc2n(n1)CCCCN(c1nc(OC[C@@]34CCCN3C[C@H](F)C4)nc3c(F)c(-c4cc(O)cc5ccc(F)c(CC)c45)ncc13)C2` [Example 673, N-ethyl-5-(7-(8-ethyl-7-fluoro-3-hydroxynaphthalen-1-yl)-8-fluoro-2-(((2R,7aS)-2-fluorotetrahydro-1H-pyrrolizin-7a(5H)-yl)methoxy)pyrido[4,3-d]pyrimidin-4-yl)-4,5,6,7,8,9-hexahydropyrazolo[1,5-a][1,4]diazocine-2-carboxamide], the inhibition at 0.1 µM in [1] was 8%; in [2] it was 53%; in [3], 43%; in assay [4], 8%; in assay [5] it was 16%; in [6] it was 88%. Also, the figures for the IC50 in assay [1] and in [2] were 115 nM and 21 nM, respectively.
Consider `CCc1c(F)ccc2cc(O)cc(-c3ncc4c(N5CCOCC6(CCO6)C5)nc(OC[C@@]56CCCN5C[C@H](F)C6)nc4c3F)c12` (stereo partly drawn) [Example 573, 5-ethyl-6-fluoro-4-(8-fluoro-2-(((2R,7aS)-2-fluorotetrahydro-1H-pyrrolizin-7a(5H)-yl)methoxy)-4-(1,6-dioxa-9-azaspiro[3.6]decan-9-yl)pyrido[4,3-d]pyrimidin-7-yl)naphthalen-2-ol], for which the 50% inhibitory concentration (IC50) in [1] turned out to be 12 nM; in assay [2], 15 nM. Also, the inhibition at 0.1 µM was 62% in assay [3], 92% in assay [4], 53% in assay [5] and 94% in assay [6].
For the compound `CCc1c(F)ccc2cc(O)cc(-c3ncc4c(N5CC6CNCC6C5CO)nc(OC[C@@]56CCCN5C[C@H](F)C6)nc4c3F)c12` (stereo partly drawn) [Example 890, 5-ethyl-6-fluoro-4-(8-fluoro-2-(((2R,7aS)-2-fluorotetrahydro-1H-pyrrolizin-7a(5H)-yl)methoxy)-4-(1-(hydroxymethyl)hexahydropyrrolo[3,4-c]pyrrol-2 (1H)-yl)pyrido[4,3-d]pyrimidin-7-yl)naphthalen-2-ol], the IC50 in assay [1], in [2], in assay [3], in [4], in [5] and in [6] was > 10000 nM throughout.
Turning to `CCc1c(F)ccc2cc(O)cc(-c3ncc4c(N5CCn6cc(C(=O)N(C)C)nc6C5)nc(OC[C@@]56CCCN5C[C@H](F)C6)nc4c3F)c12` [Example 646, 7-(7-(8-ethyl-7-fluoro-3-hydroxynaphthalen-1-yl)-8-fluoro-2-(((2R,7aS)-2-fluorohexahydro-1H-pyrrolizin-7a-yl)methoxy)pyrido[4,3-d]pyrimidin-4-yl)-N,N-dimethyl-5,6,7,8-tetrahydroimidazo[1,2-a]pyrazine-2-carboxamide], the inhibition at 0.1 µM in assay [1] was -12%; in assay [2], -6%; in assay [3], -24%; in [4], -9%; in assay [5], -9%; in [6], 2%. Moreover, the IC50 in [1] is 8480 nM; in assay [2], > 10000 nM.
